Test results from PubChem BioAssay (NCI).
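Five compound concentrations were applied to cells in 96-well plates for 48 hours; endpoints were derived by simple linear interpolation of the resulting dose-response curve. TGI: total growth inhibition.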

Columns and labels:
Assay in all cases: NCI-60 cell line screen, 48 h
786-0 renal = tested on: 786-0 renal
DU-145 prostate = tested on: DU-145 prostate
HCC-2998 colon = tested on: HCC-2998 colon
HCT-116 colon = tested on: HCT-116 colon
HOP-62 NSCLC = tested on: HOP-62 NSCLC
HS 578T breast = tested on: HS 578T breast
M14 melanoma = tested on: M14 melanoma
MCF7 breast = tested on: MCF7 breast
MDA-MB-231 breast = tested on: MDA-MB-231 breast
NCI-H226 lung = tested on: NCI-H226 lung
NCI/ADR-RES ovarian = tested on: NCI/ADR-RES ovarian
PC-3 prostate = tested on: PC-3 prostate
T-47D breast = tested on: T-47D breast
CCRF-CEM leukemia = tested on: CCRF-CEM leukemia
SK-OV-3 ovarian = tested on: SK-OV-3 ovarian

| Compound | TGI (786-0 renal) | TGI (DU-145 prostate) | TGI (HCC-2998 colon) | TGI (HCT-116 colon) | TGI (HOP-62 NSCLC) | TGI (HS 578T breast) | TGI (M14 melanoma) | TGI (MCF7 breast) | TGI (MDA-MB-231 breast) | TGI (NCI-H226 lung) | TGI (NCI/ADR-RES ovarian) | TGI (PC-3 prostate) | TGI (T-47D breast) | TGI (CCRF-CEM leukemia) | TGI (SK-OV-3 ovarian) |
| --- | --- | --- | --- | --- | --- | --- | --- | --- | --- | --- | --- | --- | --- | --- | --- |
| C[C@H]1C[C@H](C)c2ccccc2N(C)C1=Nc1ccccc1 | 64 µM | > 100 µM | > 100 µM | 46.3 µM | > 100 µM | > 100 µM | 56.2 µM | > 100 µM | 41.4 µM | 83.6 µM | > 100 µM | > 100 µM | > 100 µM | – | – |
| O=C(CCc1ccc(O)cc1)NCCc1cccc(OCc2ccccc2)c1 | > 100 µM | > 100 µM | 41.3 µM | 50.6 µM | > 100 µM | > 100 µM | 36.2 µM | 86.6 µM | > 100 µM | 97.8 µM | > 100 µM | 88.4 µM | 67.7 µM | 20.7 µM | > 100 µM |
| CCCCCC(CO)C(O)(C(F)(F)F)C(F)(F)F (centres undefined) | > 10 µM | > 10 µM | > 10 µM | > 10 µM | > 10 µM | > 10 µM | > 10 µM | > 10 µM | > 10 µM | > 10 µM | > 10 µM | > 10 µM | > 10 µM | – | > 10 µM |
| COc1cc(C2c3cc4c(cc3OC(Nc3ccccc3)C2C)OCO4)cc(OC)c1OC (centres undefined) | > 100 µM | > 100 µM | > 26.6 µM | > 33 µM | 9.89 µM | > 78.5 µM | > 86.5 µM | > 100 µM | > 52.4 µM | 12.8 µM | > 100 µM | > 100 µM | > 100 µM | > 19.9 µM | > 100 µM |
| CCC1=CC2Cc3nc4cc(Cl)ccc4c(N)c3C(C1)C2 (centres undefined) | 11.9 µM | 28.9 µM | 3.69 µM | 9.77 µM | 22.5 µM | 13.1 µM | 3.16 µM | 17.6 µM | 18.9 µM | 5.73 µM | 27.6 µM | 18.4 µM | 7.3 µM | 15.9 µM | 25.9 µM |
| CN(C)CCCCN1c2ccccc2Sc2cc(N=[N+]=[N-])ccc21 | 3.08 µM | 3.8 µM | 3.37 µM | 3.32 µM | 5.22 µM | 9.83 µM | 3.08 µM | 3.32 µM | 3.12 µM | 7.9 µM | 4.07 µM | 4.22 µM | 4.86 µM | 4.11 µM | 5.1 µM |
| O=c1c2cc([N+](=O)[O-])ccc2n2n1Cc1ccccc1C2 | > 100 µM | > 100 µM | > 100 µM | > 100 µM | > 100 µM | > 100 µM | – | > 100 µM | > 100 µM | > 100 µM | > 100 µM | > 100 µM | > 100 µM | > 100 µM | > 100 µM |
| COc1ccc(NC(C)=O)cc1C1CCC(=O)N1 (centres undefined) | > 100 µM | > 100 µM | > 100 µM | > 100 µM | > 100 µM | > 100 µM | > 100 µM | > 100 µM | > 100 µM | > 100 µM | > 100 µM | > 100 µM | > 100 µM | > 100 µM | > 100 µM |
| O=c1[nH]c(=S)[nH]n1C(=S)n1[nH]c(=S)[nH]c1=O | > 100 µM | > 100 µM | > 100 µM | > 100 µM | > 100 µM | > 100 µM | > 100 µM | 40.6 µM | > 100 µM | > 100 µM | > 100 µM | > 100 µM | > 100 µM | > 100 µM | – |
| C=C(Br)CN(C(C)=O)C1CCCCC1 | > 100 µM | > 100 µM | > 100 µM | > 100 µM | > 100 µM | > 100 µM | > 100 µM | > 100 µM | > 100 µM | > 100 µM | > 100 µM | > 100 µM | > 100 µM | > 100 µM | > 100 µM |
| N#CC(Nc1ccccc1)c1ccc(C(C#N)Nc2ccccc2)cc1 (centres undefined) | > 100 µM | > 100 µM | > 100 µM | > 100 µM | – | > 100 µM | > 100 µM | > 100 µM | > 100 µM | > 100 µM | > 100 µM | > 100 µM | > 100 µM | 48 µM | > 100 µM |
| CC(=O)NC1C(O)C(O)C(CO)OC1n1ncc(=O)[nH]c1=O (centres undefined) | > 100 µM | > 100 µM | > 100 µM | > 100 µM | > 100 µM | > 100 µM | > 100 µM | > 100 µM | > 100 µM | > 100 µM | > 100 µM | > 100 µM | > 100 µM | > 100 µM | > 100 µM |
| CCCCCCCCC/C=C1\CC(CO)(COC(=O)C2CCCCC2)OC1=O (centres undefined) | 32.1 µM | 21.5 µM | 42.3 µM | 44.5 µM | 27.9 µM | 41 µM | 55.9 µM | 43.9 µM | 44.8 µM | 74.4 µM | 38.1 µM | 40.4 µM | 51.7 µM | 63.2 µM | 70.8 µM |
| COc1cccc2c(Nc3ccc(S(=O)(=O)NC(C)=O)cc3)c3ccc([N+](=O)[O-])cc3nc12 | > 100 µM | > 100 µM | > 100 µM | > 100 µM | > 100 µM | > 100 µM | > 100 µM | > 100 µM | 56.6 µM | > 64.7 µM | > 100 µM | > 100 µM | > 100 µM | > 100 µM | > 100 µM |
| O=C1c2c(ccc3c2CCC3)CC12Cc1cc3c(cc1C2)CCC3 | > 100 µM | > 100 µM | > 100 µM | > 100 µM | > 100 µM | > 100 µM | > 100 µM | > 100 µM | > 100 µM | > 100 µM | > 100 µM | > 100 µM | > 100 µM | > 100 µM | > 100 µM |
| OC(C/C(=N\N1CCCCC1)c1cccs1)(C(F)(F)F)C(F)(F)F | > 10 µM | > 10 µM | > 10 µM | > 10 µM | > 10 µM | > 10 µM | > 10 µM | > 10 µM | > 10 µM | > 10 µM | > 10 µM | > 10 µM | > 10 µM | > 10 µM | > 10 µM |
| CN(C)C(=O)Nc1cc2c3c(c1)CCCN3CCC2 | > 10 µM | > 10 µM | > 10 µM | > 10 µM | > 10 µM | > 10 µM | > 10 µM | > 10 µM | > 10 µM | > 10 µM | > 10 µM | > 10 µM | > 10 µM | > 10 µM | > 10 µM |
| CCOC(=O)C1C(c2ccc(OC)cc2)c2c([nH][nH]c2=O)CC1(O)OCC (centres undefined) | > 100 µM | > 100 µM | > 100 µM | > 100 µM | > 100 µM | > 100 µM | > 100 µM | > 100 µM | > 100 µM | – | > 100 µM | > 100 µM | > 100 µM | > 100 µM | – |
| CNn1c(C)n[nH]c1=O | > 100 µM | > 100 µM | > 100 µM | > 100 µM | > 100 µM | > 100 µM | > 100 µM | > 100 µM | > 100 µM | > 100 µM | > 100 µM | > 100 µM | > 100 µM | > 100 µM | > 100 µM |
| CCSC1=N/C(=C\c2ccco2)C(Cl)=N1 | > 100 µM | > 100 µM | – | > 100 µM | > 100 µM | > 100 µM | > 100 µM | > 100 µM | > 100 µM | > 100 µM | > 100 µM | > 100 µM | > 100 µM | > 100 µM | > 100 µM |
| COc1cc(NP(=O)(Oc2ccccc2)Oc2ccccc2)ccc1Nc1c2ccccc2nc2c1[nH]c1ccccc12 | 1.58 µM | 1.56 µM | 23.2 µM | 63.8 µM | 2.8 µM | 98.1 µM | 7.02 µM | 25.7 µM | 28.6 µM | 20.2 µM | 20.9 µM | > 89.7 µM | 12.7 µM | – | 20.9 µM |
| Cc1ccc(SCC(CF)OCn2cc(F)c(=O)[nH]c2=O)cc1 (centres undefined) | > 100 µM | > 100 µM | > 100 µM | > 100 µM | > 100 µM | > 100 µM | > 100 µM | > 100 µM | > 100 µM | – | > 100 µM | > 100 µM | > 100 µM | > 100 µM | > 100 µM |
| N#Cc1sc2c(c1OC(=O)c1cccs1)c(=O)n(-c1ccccc1)c(=S)n2-c1ccccc1 | 90.6 µM | > 100 µM | – | 34.2 µM | 49.5 µM | 43.6 µM | 38.2 µM | 49.7 µM | 45.1 µM | 43.4 µM | 50.1 µM | 64.6 µM | 34.1 µM | – | > 100 µM |
| CC(=O)N(CCc1ccccc1)C(C#N)c1ccc(OCCCCCCCCCCOc2ccc(C(C#N)N(CCc3ccccc3)C(C)=O)cc2)cc1 (centres undefined) | 50 µM | > 100 µM | > 100 µM | > 100 µM | – | 56.1 µM | > 100 µM | > 100 µM | 48.5 µM | 66.9 µM | > 100 µM | > 100 µM | > 100 µM | > 100 µM | > 100 µM |
| NNc1nc2ccccc2s1 | > 100 µM | > 100 µM | > 100 µM | > 100 µM | – | > 100 µM | > 100 µM | > 100 µM | > 100 µM | > 100 µM | > 100 µM | > 100 µM | > 100 µM | > 100 µM | – |
